Experimental data as given in ChEMBL document CHEMBL3603746, “Discovery of New H2S Releasing Phosphordithioates and 2,3-Dihydro-2-phenyl-2-sulfanylenebenzo[d][1,3,2]oxazaphospholes with Improved Antiproliferative Activity” (J Med Chem, 2015).
pIC50: −log10 of the molar value.

What was measured:
[1] = Induction of H2S release in 10% PBS:MeCN solution at 5 mM incubated at 22 degC in dark condition measured at 96 hrs by 2, 6-dansyl azide probed-based fluorescence assay relative to GYY4137; format: physicochemical; settings: buffer, 5000 µM
[2] = Effective permeability of the compound at 500 uM after 6 hrs by PAMPA; settings: for Papp at 6 h, 500 µM: PAMPA
[3] = tested on: SK-OV-3; test: Cytotoxicity against human SKOV3 cells assessed as inhibition of cell proliferation after 4 days by crystal violet assay; format: functional, cell-based; settings: SK-OV-3, 96 h
[4] = tested on: Hepatocyte; test: Toxicity in transforming growth factor alpha transgenic mouse hepatocytes at 100 uM after 24 hrs by CellTiter-Glo cell viability assay; format: cell-based
[5] = Induction of H2S release in 10% PBS:MeCN solution at 5 mM incubated at 37 degC in dark condition measured at 96 hrs by 2, 6-dansyl azide probed-based fluorescence assay relative to GYY4137; format: physicochemical; settings: buffer, 5000 µM
[6] = tested on: PC-3; test: cells; format: functional, cell-based; settings: Homo sapiens, PC-3, 72 h
Description: Cytotoxicity against human PC3 cells assessed as inhibition of cell proliferation after 72 hrs by MTT assay

[7] = Induction of H2S release in 10% PBS:MeCN solution at 5 mM incubated at 22 degC in dark condition measured at 96 hrs by 2, 6-dansyl azide probed-based fluorescence assay relative to control; settings: buffer, 5000 µM
[8] = tested on: MCF7; test: cells; format: functional, cell-based; settings: Homo sapiens, MCF7, 72 h
Description: Cytotoxicity against human MCF7 cells assessed as inhibition of cell proliferation after 72 hrs by MTT assay

[9] = tested on: MCF7; test: Cytotoxicity against human MCF7 cells assessed as inhibition of cell proliferation after 4 days by crystal violet assay; format: functional, cell-based; settings: MCF7, 96 h
[10] = Induction of H2S release in 10% PBS:MeCN solution assessed as ratio of H2S level at 37 degC to H2S level at 22 degC at 5 mM incubated in dark condition measured at 96 hrs by 2, 6-dansyl azide probed-based fluorescence assay; settings: buffer, 5000 µM
[11] = tested on: MDA-MB-231; test: cells; format: functional, cell-based; settings: Homo sapiens, MDA-MB-231, 72 h
Description: Cytotoxicity against human MDA-MB-231 cells assessed as inhibition of cell proliferation after 72 hrs by MTS assay

[12] = Induction of H2S release in 10% PBS:MeCN solution at 5 mM incubated at 37 degC in dark condition measured at 96 hrs by 0.2 mM 2, 6-dansyl azide probed-based fluorescence assay relative to control; format: physicochemical; settings: buffer, 5000 µM
[13] = Effective permeability of the compound at 500 uM after 16 hrs by PAMPA
[14] = Toxicity in human WI38 cells assessed as inhibition of cell proliferation after 4 days by crystal violet assay
[15] = Induction of H2S release in 10% PBS:MeCN solution at 100 uM incubated at 37 degC in dark condition measured at 72 hrs by 2, 6-dansyl azide probed-based fluorescence assay; format: physicochemical; settings: buffer
[16] = Therapeutic index, ratio of IC50 for human WI38 cells to IC50 for human SKOV3 cells; settings: WI38 cells and SKOV3 cells
[17] = Induction of H2S release in 10% PBS:MeCN solution at 1 mM incubated at 22 degC in dark condition measured at 72 hrs by 2, 6-dansyl azide probed-based fluorescence assay; format: physicochemical; settings: buffer, 1000 µM
[18] = Induction of H2S release in 10% PBS:MeCN solution at 0.5 mM incubated at 22 degC in dark condition measured at 48 hrs by 2, 6-dansyl azide probed-based fluorescence assay relative to 12 uM of GYY4137; format: physicochemical; settings: buffer, 500 µM
[19] = Induction of H2S release in 10% PBS:MeCN solution assessed as ratio of H2S level at 37 degC to H2S level at 22 degC at 0.5 mM incubated in dark condition measured at 96 hrs by 2, 6-dansyl azide probed-based fluorescence assay; format: physicochemical; settings: buffer, 500 µM
[20] = Induction of H2S release in 10% PBS:MeCN solution at 0.5 mM incubated at 37 degC in dark condition measured at 48 hrs by 2, 6-dansyl azide probed-based fluorescence assay relative to 6.9 uM of GYY4137; format: physicochemical; settings: buffer, 500 µM
[21] = Induction of H2S release in 10% PBS:MeCN solution at 0.5 mM incubated at 22 degC in dark condition measured at 48 hrs by 2, 6-dansyl azide probed-based fluorescence assay relative to control; format: physicochemical; settings: buffer, 500 µM
[22] = Therapeutic index, ratio of IC50 for human WI38 cells to IC50 for human MCF7 cells; settings: WI38 cells and MCF7 cells
[23] = Induction of H2S release in 10% PBS:MeCN solution at 0.5 mM incubated at 37 degC in dark condition measured at 48 hrs by 1 mM 2, 6-dansyl azide probed-based fluorescence assay relative to control; format: physicochemical; settings: buffer, 500 µM
[24] = Therapeutic index, ratio of IC50 for human WI38 cells to IC50 for human MBA-MD-231 cells; settings: WI38 cells and MBA-MD-231 cells
[25] = Therapeutic index, ratio of IC50 for human WI38 cells to IC50 for human PC3 cells; settings: WI38 cells and PC3 cells
[26] = Induction of H2S release in 10% PBS:MeCN solution at 5 mM incubated at 37 degC in dark condition measured at 96 hrs by 1 mM 2, 6-dansyl azide probed-based fluorescence assay relative to control; settings: buffer, 5000 µM
[27] = Induction of H2S release in aqueous acetonitrile solution at 400 uM measured over 4 days by probe 21-based fluorescence assay; settings: buffer, 96 h
[28] = Induction of H2S release in aqueous acetonitrile solution at 200 uM measured over 4 days by probe 21-based fluorescence assay; settings: buffer, 96 h
[29] = physchem; settings: DMSO, pH 7.4
Description: Kinetic solubility of the compound in DMSO at pH 7.4 measured at 24 hrs by multiscreen filter paper-based UV absorbance analysis

[30] = physchem; settings: DMSO, pH 7.4; remark: listed apart in the source
Description: Kinetic solubility of the compound in DMSO at pH 7.4 measured at 3 hrs by multiscreen filter paper-based UV absorbance analysis

Row | SMILES | fold change (FC) [1] | pIC50 [3] | fold change (FC) [5] | %max [7] | pIC50 [8] | pIC50 [9] | Ratio [10] | pIC50 [11] | %max [12] | IC50 at 4 days [14] | Activity [15] | selectivity ratio [16] | Activity [17] | selectivity ratio [22] | selectivity ratio [24] | selectivity ratio [25] | also measured
1 | C1COCCN1.COc1ccc(P(=S)(S)OC)cc1 (stereo unspecified) | < 0.1 | 3.37 | < 0.1 | 0.06% | 3.35 | 3.35 | 2.5 | 3.66 | 0.15% | – | – | – | – | – | – | – | Peff ([2]; pampa, 6 h, 500 µM): 0.003 ×10⁻⁷ cm/s; Activity [4]: Non-toxic; pIC50 [6]: < 3.70; Papp at 16 h, 500 µM [13]: 0.0031 ×10⁻⁶ cm/s
2 | COc1ccc(P2(=S)Nc3cc(F)ccc3O2)cc1 (stereo unspecified) | – | 4.15 | – | – | – | 4.47 | – | – | – | > 200 µM | 33.3 µM | 2.8 | 53.8 µM | – | – | – | –
3 | NCc1ccccc1.S=P(S)(NCc1ccccc1)NCc1ccccc1 | – | 3.72 | – | – | 3.66 | 3.84 | – | 3.98 | – | 266 µM | – | 1.4 | – | 1.4 | 1.4 | 1.4 | fold change (FC) [18]: 2; Ratio [19]: 0.8; fold change (FC) [20]: 2.8; %max [21]: 2.4%; %max [23]: 1.9%
4 | C1COCCN1.S=P(S)(N1CCOCC1)N1CCOCC1 | – | 3.57 | – | – | 3.48 | 3.66 | – | 3.42 | – | 683 µM | – | 2.6 | – | 2.6 | 2.6 | 2.6 | fold change (FC) [18]: 56; Activity [4]: Non-toxic; Ratio [19]: 1.1; fold change (FC) [20]: 110.4; %max [21]: 67.2%; %max [23]: 76.2%
5 | NCC1CCCCC1.S=P(S)(NCC1CCCCC1)NCC1CCCCC1 | – | 3.75 | – | – | < 3.30 | 3.77 | – | < 3.30 | – | 287 µM | – | 1 | – | 1 | 1 | 1 | fold change (FC) [18]: 6.8; Ratio [19]: 2.7; fold change (FC) [20]: 31.6; %max [21]: 0.82%; %max [23]: 21.8%
6 | C1COCCN1.COc1ccc(P(=S)(S)OC(C)C)cc1 (stereo unspecified) | < 0.1 | 3.70 | < 0.1 | 0.04% | 3.69 | 3.57 | 3 | 4.07 | 0.12% | > 400 µM | – | 1.5 | – | 1.5 | 1.5 | – | –
7 | COc1ccc(P2(=S)Nc3cc(OC)ccc3O2)cc1 (stereo unspecified) | – | 4.52 | – | – | – | 4.40 | – | – | – | 115 µM | – | 2.9 | – | 2.9 | – | – | Activity ([15]; BLD = below limit of detection): BLD; Activity ([17]; BLD = below limit of detection): BLD
8 | C1COCCN1.S=P(S)(c1ccc(Oc2ccccc2)cc1)N1CCOCC1 (stereo unspecified) | 1.2 | 3.49 | 0.9 | 1.68% | 3.79 | 3.71 | 3.3 | 4.02 | – | 656 µM | – | 2 | – | 2 | 2 | 2 | Papp at 6 h, 500 µM [2]: 0.015 ×10⁻⁶ cm/s; %max [26]: 5.54%; Activity [4]: Non-toxic; pIC50 [6]: 3.99; Activity [27]: 5.47 µM; Papp at 16 h, 500 µM [13]: 0.013 ×10⁻⁶ cm/s; Activity [28]: 4.14 µM
9 | CN1c2ccccc2OP1(=S)c1ccccc1 (stereo unspecified) | – | 4.16 | – | – | – | 4.14 | – | – | – | 207 µM | 20.7 µM | 2.8 | 24.4 µM | 2.8 | – | – | –
10 | COc1ccc(P2(=S)Oc3ccccc3N2C)cc1 (stereo unspecified) | – | 4.35 | – | – | – | 4.37 | – | – | – | 92.5 µM | 10.1 µM | 2.1 | 2.1 µM | 2.1 | – | – | –
11 | Cc1ccc2c(c1)OP(=S)(c1ccc(Oc3ccccc3)cc1)N2 (stereo unspecified) | – | 3.71 | – | – | – | 3.73 | – | – | – | > 400 µM | 59.9 µM | 2 | 39.2 µM | – | – | – | –
12 | COc1ccc(P2(=S)Nc3ccccc3O2)cc1 (stereo unspecified) | – | 4.42 | – | – | – | 4.43 | – | – | – | 94.4 µM | 42.7 µM | 2.5 | 48.3 µM | 2.5 | – | – | –
13 | COc1ccc(P2(=S)Nc3ccc(C)cc3O2)cc1 (stereo unspecified) | – | 3.68 | – | – | – | 4.03 | – | – | – | > 400 µM | 48.2 µM | 1.9 | 59 µM | – | – | – | –
14 | C1COCCN1.COP(=S)(S)c1ccc(Oc2ccccc2)cc1 (stereo unspecified) | < 0.1 | 3.78 | < 0.1 | 0.06% | 3.70 | 3.74 | 2.7 | 4.06 | 0.16% | 347 µM | – | 1.9 | – | 1.9 | 1.9 | 1.9 | pIC50 [6]: 4.14
15 | Fc1ccc2c(c1)NP(=S)(c1ccc(Oc3ccccc3)cc1)O2 (stereo unspecified) | – | 4.42 | – | – | – | 4.87 | – | – | – | 65.6 µM | Not Active | 1.7 | 5 µM | 1.7 | – | – | –
16 | C1COCCN1.CCCCOP(=S)(S)c1ccc(OC)cc1 (stereo unspecified) | < 0.1 | – | < 0.1 | 0.04% | 3.72 | 4.04 | 3.2 | 4.11 | 0.12% | 177 µM | – | 1.1 | – | 1.1 | 1.1 | 1.1 | pIC50 [6]: 4.10
17 | COc1ccc(P(=S)(S)OCCCN)cc1 (stereo unspecified) | < 0.1 | < 3.40 | < 0.1 | 0.02% | < 3.30 | < 3.40 | 2.7 | < 3.30 | 0.06% | – | – | – | – | – | – | – | Papp at 6 h, 500 µM [2]: 0.007 ×10⁻⁶ cm/s; solubility kinetic at 24 h [29]: > 280 µg/mL; Papp at 16 h, 500 µM [13]: 0.0027 ×10⁻⁶ cm/s
18 | COc1ccc(P(=S)(S)NCc2ccccc2)cc1.NCc1ccccc1 (stereo unspecified) | 1.5 | 4.05 | 0.8 | 2.19% | 4.08 | 4.07 | 2.3 | 4.39 | – | 208 µM | – | 2.3 | – | 2.3 | 2.3 | 2.3 | %max [26]: 5.07%; pIC50 [6]: 4.50; Activity [27]: 10.29 µM; Activity [28]: 5.55 µM
19 | CCNCCOP(=S)(S)c1ccc(OC)cc1 (stereo unspecified) | – | < 3.40 | < 0.1 | < 0.01% | 3.32 | < 3.40 | – | < 3.30 | 0.03% | – | – | – | – | – | – | – | Papp at 6 h, 500 µM [2]: 0.013 ×10⁻⁶ cm/s; solubility kinetic at 3 h [30]: > 290 µg/mL; solubility kinetic at 24 h [29]: > 290 µg/mL; Papp at 16 h, 500 µM [13]: 0.0041 ×10⁻⁶ cm/s
